Measurements from ChEMBL document CHEMBL1201862, “PubChem BioAssay data set” (2004).
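Dose response: 5 concentrations. Exposure: 48 h. Format: 96-well plates. Endpoint: linear interpolation; highest concentration if not reached. The concentration for 50% growth inhibition is given as GI50.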 The source made the active and inactive calls. Cut-off read from the data, not from the text of the source: active = GI50 up to about 1.1 µM and inactive = higher.

Experiments:
Assay in all cases: NCI anticancer screen, dose series, 48 h
[1] = tested on: Hs-578T
[2] = tested on: MOLT-4
[3] = tested on: HCT-15
[4] = tested on: HL-60
[5] = tested on: SNB-19
[6] = tested on: DU-145
[7] = tested on: OVCAR-8
[8] = tested on: HCT-116
[9] = tested on: MDA-MB-231
[10] = tested on: SN12C
[11] = tested on: CCRF-CEM
[12] = tested on: LOX IMVI
[13] = tested on: MCF7
[14] = tested on: SF-268
[15] = tested on: A549
[16] = tested on: NCI-H23
[17] = tested on: NCI-H226
[18] = tested on: NCI-H460
[19] = tested on: HT-29
[20] = tested on: SNB-75

| Compound | GI50 [1] | GI50 [2] | GI50 [3] [µM] | GI50 [4] | GI50 [5] | GI50 [6] | GI50 [7] | GI50 [8] | GI50 [9] | GI50 [10] | GI50 [11] | GI50 [12] | GI50 [13] | GI50 [14] | GI50 [15] | GI50 [16] | GI50 [17] | GI50 [18] | GI50 [19] | GI50 [20] |
| --- | --- | --- | --- | --- | --- | --- | --- | --- | --- | --- | --- | --- | --- | --- | --- | --- | --- | --- | --- | --- |
| COc1cccc(-c2nnc3c(-c4ccccc4)nc4ccccc4n23)c1 | 57.9 µM (inactive) | 9.53 µM (inactive) | 7.23 | 7.18 µM (inactive) | > 100 µM (inactive) | 42.5 µM (inactive) | 45.2 µM (inactive) | 19.7 µM (inactive) | 24.5 µM (inactive) | 73.1 µM (inactive) | 11.2 µM (inactive) | 63.5 µM (inactive) | 14.4 µM (inactive) | > 100 µM (inactive) | 21.2 µM (inactive) | 30.1 µM (inactive) | 57.3 µM (inactive) | 10.3 µM (inactive) | 19.2 µM (inactive) | – |
| O=C(Cc1ccccc1)NN1C(=O)/C(=C\c2ccccc2)S/C1=N\c1ccccc1 | > 100 µM (inactive) | > 100 µM (inactive) | > 100 | – | > 100 µM (inactive) | > 100 µM (inactive) | > 100 µM (inactive) | > 100 µM (inactive) | > 100 µM (inactive) | > 100 µM (inactive) | – | – | > 100 µM (inactive) | > 100 µM (inactive) | > 100 µM (inactive) | > 100 µM (inactive) | > 100 µM (inactive) | > 100 µM (inactive) | > 100 µM (inactive) | > 100 µM (inactive) |
| CC1C2CCC3C(O)C2(CC(O)C2(O)C1CC(O)C2(C)C)CC3(C)O (stereo not given) | > 100 µM (inactive) | > 10 µM (inactive) | > 100 | > 100 µM (inactive) | > 100 µM (inactive) | > 100 µM (inactive) | > 100 µM (inactive) | > 100 µM (inactive) | 35.8 µM (inactive) | > 100 µM (inactive) | > 100 µM (inactive) | > 100 µM (inactive) | > 100 µM (inactive) | > 100 µM (inactive) | > 100 µM (inactive) | > 100 µM (inactive) | > 100 µM (inactive) | > 100 µM (inactive) | > 100 µM (inactive) | – |
| CC(C)(C)C(=O)CC(=O)C(F)(F)C(F)(F)C(F)(F)F | 14.6 µM (inactive) | 17.9 µM (inactive) | 14.3 | 19.2 µM (inactive) | 20 µM (inactive) | 36.1 µM (inactive) | 20.7 µM (inactive) | 18.3 µM (inactive) | 15.5 µM (inactive) | 13.9 µM (inactive) | 16.3 µM (inactive) | 0.362 µM (active) | – | 17 µM (inactive) | 22.3 µM (inactive) | 12.6 µM (inactive) | 27.8 µM (inactive) | 12.9 µM (inactive) | 17.1 µM (inactive) | 16.6 µM (inactive) |
| Cc1cc2c(c(=O)o1)C1=S(SC(c3ccccc3)=C1)S2 (stereo not given) | 41.2 µM (inactive) | > 100 µM (inactive) | > 100 | – | 28.2 µM (inactive) | 36.3 µM (inactive) | 54.7 µM (inactive) | 22.8 µM (inactive) | 57.4 µM (inactive) | 67.3 µM (inactive) | > 100 µM (inactive) | 87.1 µM (inactive) | 29.6 µM (inactive) | 45.7 µM (inactive) | 33.7 µM (inactive) | 78.9 µM (inactive) | – | 37.2 µM (inactive) | 38.9 µM (inactive) | 26 µM (inactive) |
| N=C1C(O)C2(I)c3ccccc3N3C(=N)C(O)C4c5ccccc5N1C4C32 (stereo not given) | 61.8 µM (inactive) | 27.5 µM (inactive) | 32.3 | 20.2 µM (inactive) | 63.7 µM (inactive) | > 100 µM (inactive) | 33.5 µM (inactive) | 36.7 µM (inactive) | 26.4 µM (inactive) | 54.3 µM (inactive) | 2.3 µM (inactive) | 39 µM (inactive) | 19.6 µM (inactive) | > 100 µM (inactive) | 51.8 µM (inactive) | 35.6 µM (inactive) | – | 37.7 µM (inactive) | 95.1 µM (inactive) | > 100 µM (inactive) |
| Cc1ccc(C(=O)OC(C)C)cc1/N=N/N(C)C | > 100 µM (inactive) | > 100 µM (inactive) | > 100 | 39.8 µM (inactive) | > 69.8 µM (inactive) | > 100 µM (inactive) | > 100 µM (inactive) | > 67.9 µM (inactive) | > 100 µM (inactive) | 97.5 µM (inactive) | 75.2 µM (inactive) | > 70 µM (inactive) | > 100 µM (inactive) | > 68.7 µM (inactive) | > 100 µM (inactive) | 45.3 µM (inactive) | – | > 100 µM (inactive) | > 100 µM (inactive) | – |
| CCCCOc1ccc(S(=O)(=O)N/C(N)=N/c2ccc(Cl)cc2)cc1 | 20.1 µM (inactive) | 11.2 µM (inactive) | 14 | – | 16.9 µM (inactive) | 17.4 µM (inactive) | 16.1 µM (inactive) | 15.2 µM (inactive) | 15.6 µM (inactive) | 14.9 µM (inactive) | – | 17.3 µM (inactive) | 12.4 µM (inactive) | 14.3 µM (inactive) | 19.5 µM (inactive) | 15.7 µM (inactive) | 19.9 µM (inactive) | 17.1 µM (inactive) | 18.3 µM (inactive) | 17.9 µM (inactive) |
| Cc1cccc2c(N)c3cccc(C(=O)NCCN(C)C)c3nc12 | 0.207 µM (active) | < 0.01 µM (active) | < 0.0154 | < 0.01 µM (active) | – | 0.0188 µM (active) | 0.0695 µM (active) | 0.0236 µM (active) | 0.0538 µM (active) | < 0.0167 µM (active) | < 0.01 µM (active) | < 0.033 µM (active) | < 0.0168 µM (active) | < 0.0265 µM (active) | < 0.0161 µM (active) | < 0.0259 µM (active) | – | < 0.01 µM (active) | < 0.0236 µM (active) | 0.074 µM (active) |
| Cc1ccc(/N=N/c2c(C)c(C#N)c(=S)n(C3OC(CO)C(O)C(O)C3O)c2C)cc1 (stereo not given) | 17 µM (inactive) | 12.9 µM (inactive) | 39 | 59.6 µM (inactive) | 27.7 µM (inactive) | 53.1 µM (inactive) | – | 25.8 µM (inactive) | 24.4 µM (inactive) | 28.2 µM (inactive) | 20 µM (inactive) | 18.2 µM (inactive) | 35.6 µM (inactive) | 50.1 µM (inactive) | 40.6 µM (inactive) | 32.1 µM (inactive) | – | 23.7 µM (inactive) | 30.9 µM (inactive) | 25.4 µM (inactive) |
| Cc1cc(-c2[nH]c(C(=O)O)cc2I)on1 | 67.9 µM (inactive) | > 100 µM (inactive) | > 100 | – | 31 µM (inactive) | > 100 µM (inactive) | 20.2 µM (inactive) | 42 µM (inactive) | 75.2 µM (inactive) | – | – | – | > 100 µM (inactive) | 68.7 µM (inactive) | 56.6 µM (inactive) | 51.2 µM (inactive) | – | > 100 µM (inactive) | > 100 µM (inactive) | 24.8 µM (inactive) |
| COc1ccc(C#Cn2nnc3ccccc32)cc1 | > 100 µM (inactive) | 71.6 µM (inactive) | > 100 | 21.6 µM (inactive) | > 100 µM (inactive) | 41 µM (inactive) | > 100 µM (inactive) | > 100 µM (inactive) | > 100 µM (inactive) | > 100 µM (inactive) | – | > 100 µM (inactive) | 41.8 µM (inactive) | 91.2 µM (inactive) | > 100 µM (inactive) | > 100 µM (inactive) | 64.7 µM (inactive) | > 100 µM (inactive) | > 100 µM (inactive) | – |
| COc1c2c(cc3nc4ccccc4nc13)CC[C@H](NC(C)=O)c1cc(=O)c(SC)ccc1-2 | 0.126 µM (active) | 0.555 µM (active) | 2.84 | – | 0.446 µM (active) | 2.47 µM (inactive) | 1.63 µM (inactive) | 0.46 µM (active) | 2.96 µM (inactive) | 2.79 µM (inactive) | 0.532 µM (active) | 0.755 µM (active) | 0.327 µM (active) | 1.15 µM (inactive) | 4.29 µM (inactive) | 0.238 µM (active) | 1.08 µM (active) | 0.933 µM (active) | 1.04 µM (active) | – |
| O=C(OC1C(Oc2ccccc2COC(=O)C2(O)C=CCCC2=O)OC(CO)C(O)C1O)c1ccccc1 (stereo not given) | 13.5 µM (inactive) | 6.03 µM (inactive) | 28.2 | 23.6 µM (inactive) | 40.9 µM (inactive) | 0.953 µM (active) | 36.7 µM (inactive) | 45.9 µM (inactive) | 35.5 µM (inactive) | 25.9 µM (inactive) | – | 23.6 µM (inactive) | – | 13.2 µM (inactive) | 7.05 µM (inactive) | 26.4 µM (inactive) | 23.8 µM (inactive) | 22.3 µM (inactive) | 60.4 µM (inactive) | 7.13 µM (inactive) |
| COC(=O)/C(C)=N/N=C(\S)SC | 28.8 µM (inactive) | 55.1 µM (inactive) | 36.7 | 0.105 µM (active) | – | 24.3 µM (inactive) | 36.4 µM (inactive) | 31.6 µM (inactive) | 46.6 µM (inactive) | – | 0.0428 µM (active) | 37.2 µM (inactive) | 35.4 µM (inactive) | 21.8 µM (inactive) | – | 45.6 µM (inactive) | > 100 µM (inactive) | 26.9 µM (inactive) | 17.3 µM (inactive) | – |
| Cc1cc(C)c(/N=N/c2c(O)c(S(=O)(=O)O)cc3cc(S(=O)(=O)O)ccc23)cc1C | > 100 µM (inactive) | > 100 µM (inactive) | > 100 | – | > 100 µM (inactive) | > 100 µM (inactive) | > 100 µM (inactive) | > 100 µM (inactive) | > 100 µM (inactive) | > 100 µM (inactive) | > 100 µM (inactive) | > 100 µM (inactive) | – | > 100 µM (inactive) | > 100 µM (inactive) | > 100 µM (inactive) | > 100 µM (inactive) | – | > 100 µM (inactive) | > 100 µM (inactive) |
